“Also recorded” adds a separate entry of the source. Non-standard residues stand in square brackets, D forms with d. Residues, ends and D or L forms follow the SMILES beside them. No end group written: not given here. NMeF = CN[C@@H](Cc1ccccc1)C(=O)O; NMeL = CN[C@@H](CC(C)C)C(=O)O; NMeV = CN[C@H](C(=O)O)C(C)C; Nle = CCCC[C@H](N)C(=O)O
Experiments:
[1] = molecular target: T1, Aβ42 (Homo sapiens, UniProt P05067); experiment: cell-based; settings: read-out: IC50 (±SD) of inhibitory effects of ACMs on Aβ42-mediated cell damage
T1 construct: the 40(42)-residue peptide Aβ40(42); made in house; host or cells: chemical synthesis (Fmoc-SPPS), monomer isolated by SEC
Procedure: Following incubation with the cells for ˜20 h (37° C., humidified atmosphere, 5% CO2), cell damage was assessed by measuring cellular MTT reduction.
Solutions were aged for 1.5 h (37° C., shaking 500 rpm). Aliquots were diluted with cell medium, incubated with PC12 cells at the indicated final concentrations for ˜20 h and cellular MTT reduction was measured as above.

[2] = system: Aβ42-mediated LTP impairment; experiment: Hippocampal long-term potentiation (LTP) measurements in murine hippocampal slices ex vivo; design: species or system mouse; settings: Aβ42 oligomers 50 nM, 24 h aged, 30° C.; oligomers/ACM 1/10
Procedure: LTP measurements were performed. Briefly, sagittal hippocampal slices (350 μm) were obtained from C57BL/6N male mice (6-8 weeks) in ice-cold Ringer solution bubbled with a mixture of 95% O2 and 5% CO2 and according to protocols approved by the ethical committee on animal care and use of the government of Bavaria Germany. Extracellular recordings were performed using artificial cerebrospinal fluid (ACSF)-filled glass microelectrodes (2-3 MW) at RT. […] Field excitatory postsynaptic potentials (fEPSPs) were evoked in the hippocampal CA1 dendritic region via two independent inputs by stimulating the Schaffer collateral commissural pathway (Scep). For LTP induction, high-frequency stimulation (HFS; 100 Hz/100 pulses) conditioning pulses were delivered to the same Seep inputs. Both stimulating electrodes were used to utilize the input specificity of LTP, thus allowing for the measurement of an internal control within the same slice. […] Responses were measured for 60 min after HFS. […] Data analysis by 1-way ANOVA and Bonferroni's multiple comparison test.

[3] = molecular target: T2, IAPP (Homo sapiens, UniProt P10997); experiment: MTT reduction assay of IAPP-mediated cell damage in RIN5fm cells; type: cell-based; settings: for Effect on formation of cytotoxic IAPP assemblies (MTT reduction): aged (24 h or 7 days) IAPP/peptide 1/2 solutions; for IC50: read-out: IC50 (±SD) of inhibitory effects of ACMs on IAPP-mediated cell damage
T2 construct: made in house; host or cells: chemical synthesis (Fmoc-SPPS), air-oxidised, RP-HPLC purified
T2 sequence (P10997 34-70 limits assumed): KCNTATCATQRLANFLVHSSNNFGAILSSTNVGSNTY
Procedure: Briefly, cells were cultivated and platted in 96-well plates. Aliquots of solutions used for the ThT binding assays (see “ThT binding assays”) were diluted with cell medium at the indicated incubation time points (24 h or 7 days) and added to the cells at the indicated final concentrations. Following incubation with the cells for ˜20 h (37° C., humidified atmosphere, 5% CO2) cell damage was assessed by measuring cellular MTI reduction. IC50 values were determined.

[4] = system: cultured murine BV2 microglia; experiment: Phagocytosis of Aβ42 species with or without ACM; type: cell-based, mouse; settings: 1/1, co-incubation 2 h
Procedure: Briefly, BV2 cells were maintained in GlutaMAX-supplemented RPMI1640 medium containing 10% FBS and 1% penicillin/streptomycin on poly-L-ornithine-coated flasks. For the phagocytosis assay, BV2 cells were seeded into 24-well plates containing coverslips in serum-free RPMI1640-GlutaMAX and further incubated for 24 h (5% CO2, 37° C.) to reach 10000 cells/well. Primary BMDMs were obtained from bone-marrow monocytes isolated from wildtype C57BL/6 mice, plated in 24-well plates at a density of 10000cells/well, and differentiated with L929 cell-conditioned medium (RPMI1640, 10% FBS, 1% penicillin/streptomycin) for 7 days. Thereafter, cells were incubated with aged peptide solutions at 37° C. for 6 h. […]
Following incubation of the cells with the peptides, supernatants were removed and cells on the coverslips were washed 5 times with ice-cold 1×PBS, fixed with 4% paraformaldehyde, washed with 1×PBS, permeabilized with 0.2% Triton-X 100, and rinsed three times with cold 1×PBS. […] Images were acquired using a Leica DMi8 fluorescence microscope. The percentage of cells that had taken up peptides was calculated by dividing the number of BV2 cells or BMDMs that phagocytosed TAMRA-labeled peptide by the total cell count, multiplied by 100. Significance was analyzed by unpaired student's t-test.

[5] = molecular target: T1, Aβ42; experiment: ThT binding assay of Aβ42 fibrillogenesis (self-assembly, seeding, cross-seeding); type: biochemical; settings: Aβ42 5 μM, Aβ42/peptide 1/1
Procedure: Aβ42 fibrillogenesis-related studies. […] Peptide incubations were performed in the presence of ThT in 96-well black MTPs (FluoroNunc, Thermo Fisher Scientific). […] Values of seeds or buffer alone were subtracted from the data in self-/cross-seeding assays; all other data shown are raw data except for data in FIG. 27b which were normalized).
Incubations (37° C.) and determination of ThT fluorescence were performed as for all other Aβ42-related studies.

Compound | IC50 [1] [nM] | Effect on LTP impairment mediated by preformed Aβ42 oligomers [2] | Effect on formation of cytotoxic IAPP assemblies (MTT reduction) ([3]; RIN5fm cells) | IC50 [3] [nM] | Effect of addition to preformed fIAPP on fIAPP cytotoxicity (MTT reduction) ([3]; RIN5fm cells, ACM 33 μM added to fIAPP […], 1 day, fIAPP 500 nM) | Effect of addition to TAMRA-oAβ42 on Aβ42 phagocytosis [4] | Effect on Aβ42 fibrillogenesis / amyloid self-assembly (ThT binding) [5]
CCCC[C@H](NC(=O)[C@H](CC(C)C)NC(=O)CNC(=O)[C@@H](NC(=O)[C@@H](NC(=O)[C@H](C)NC(=O)CNC(=O)[C@H](CCCCN)NC(=O)[C@H](CC(N)=O)NC(=O)[C@H](Cc1ccccc1)NC(=O)[C@H](Cc1ccccc1)NC(=O)[C@H](Cc1ccccc1)NC(=O)[C@H](CC(=O)O)NC(=O)[C@H](CCC(=O)O)NC(=O)[C@H](C)NC(=O)[C@H](Cc1ccccc1)NC(=O)[C@H](Cc1ccccc1)N(C)C(=O)[C@@H](NC(=O)[C@H](CC(C)C)N(C)C(=O)[C@H](CCCCN)NC(=O)[C@@H](N)CCC(N)=O)C(C)C)[C@@H](C)CC)[C@@H](C)CC)C(=O)N[C@H](C(=O)NCC(=O)NCC(=O)N[C@H](C(=O)N[C@H](C(=O)O)C(C)C)C(C)C)C(C)C [F3-LF] (H-QK[NMeL]V[NMeF]FAEDFFFNKGAIIGL[Nle]VGGVV-OH) | 262 | suppress LTP impairment mediated by preformed Aβ42 oligomers | fully suppressed; also recorded: suppress formation of toxic IAPP assemblies | 41.7 |  |  | 
CCCC[C@H](NC(=O)[C@H](CC(C)C)NC(=O)CNC(=O)[C@@H](NC(=O)[C@@H](NC(=O)[C@H](C)NC(=O)CNC(=O)[C@H](CCCCN)NC(=O)[C@H](CC(N)=O)NC(=O)[C@H](Cc1ccccc1)NC(=O)[C@H](Cc1ccccc1)NC(=O)[C@H](Cc1ccccc1)NC(=O)[C@H](CC(=O)O)NC(=O)[C@H](CCC(=O)O)NC(=O)[C@H](C)NC(=O)[C@H](Cc1ccccc1)N(C)C(=O)[C@H](Cc1ccccc1)NC(=O)[C@H](C(C)C)N(C)C(=O)[C@H](CC(C)C)NC(=O)[C@H](CCCCN)NC(=O)[C@@H](N)CCC(N)=O)[C@@H](C)CC)[C@@H](C)CC)C(=O)N[C@H](C(=O)NCC(=O)NCC(=O)N[C@H](C(=O)N[C@H](C(=O)O)C(C)C)C(C)C)C(C)C [F3-VF] (H-QKL[NMeV]F[NMeF]AEDFFFNKGAIIGL[Nle]VGGVV-OH) | 1030 |  | fully suppressed; also recorded: suppress formation of toxic IAPP assemblies | 78.5 | does not affect fIAPP cytotoxicity |  | 
CCCC[C@H](NC(=O)[C@H](CC(C)C)NC(=O)CNC(=O)[C@@H](NC(=O)[C@@H](NC(=O)[C@H](C)NC(=O)CNC(=O)[C@H](CCCCN)NC(=O)[C@H](CC(N)=O)NC(=O)[C@H](CC(C)C)NC(=O)[C@H](CC(C)C)NC(=O)[C@H](CC(C)C)NC(=O)[C@H](CC(=O)O)NC(=O)[C@H](CCC(=O)O)NC(=O)[C@H](C)NC(=O)[C@H](Cc1ccccc1)NC(=O)[C@H](Cc1ccccc1)N(C)C(=O)[C@@H](NC(=O)[C@H](CC(C)C)N(C)C(=O)[C@H](CCCCN)NC(=O)[C@@H](N)CCC(N)=O)C(C)C)[C@@H](C)CC)[C@@H](C)CC)C(=O)N[C@H](C(=O)NCC(=O)NCC(=O)N[C@H](C(=O)N[C@H](C(=O)O)C(C)C)C(C)C)C(C)C [L3-LF] (H-QK[NMeL]V[NMeF]FAEDLLLNKGAIIGL[Nle]VGGVV-OH) |  |  | fully suppressed; also recorded: suppress formation of toxic IAPP assemblies | 133 |  |  | 
CCCC[C@H](NC(=O)[C@H](CC(C)C)NC(=O)CNC(=O)[C@@H](NC(=O)[C@@H](NC(=O)[C@H](C)NC(=O)CNC(=O)[C@H](CCCCN)NC(=O)[C@H](CC(N)=O)NC(=O)[C@H](CC(C)C)NC(=O)[C@H](CC(C)C)NC(=O)[C@H](CC(C)C)NC(=O)[C@H](CC(=O)O)NC(=O)[C@H](CCC(=O)O)NC(=O)[C@H](C)NC(=O)[C@H](Cc1ccccc1)N(C)C(=O)[C@H](Cc1ccccc1)NC(=O)[C@H](C(C)C)N(C)C(=O)[C@H](CC(C)C)NC(=O)[C@H](CCCCN)NC(=O)[C@@H](N)CCC(N)=O)[C@@H](C)CC)[C@@H](C)CC)C(=O)N[C@H](C(=O)NCC(=O)NCC(=O)N[C@H](C(=O)N[C@H](C(=O)O)C(C)C)C(C)C)C(C)C [L3-VF] (H-QKL[NMeV]F[NMeF]AEDLLLNKGAIIGL[Nle]VGGVV-OH) | 261 | suppress LTP impairment mediated by preformed Aβ42 oligomers | fully suppressed; also recorded: suppress formation of toxic IAPP assemblies | 113 |  | increased Aβ42 phagocytosis | 
CCCC[C@H](NC(=O)[C@H](CC(=O)O)NC(=O)[C@H](CCC(=O)O)NC(=O)[C@H](C)NC(=O)[C@H](Cc1ccccc1)NC(=O)[C@H](Cc1ccccc1)N(C)C(=O)[C@@H](NC(=O)[C@H](CC(C)C)N(C)C(=O)[C@H](CCCCN)NC(=O)[C@@H](N)CCC(N)=O)C(C)C)C(=O)N[C@@H](CCCC)C(=O)N[C@@H](CCCC)C(=O)N[C@@H](CC(N)=O)C(=O)N[C@@H](CCCCN)C(=O)NCC(=O)N[C@@H](C)C(=O)N[C@H](C(=O)N[C@H](C(=O)NCC(=O)N[C@@H](CC(C)C)C(=O)N[C@@H](CCCC)C(=O)N[C@H](C(=O)NCC(=O)NCC(=O)N[C@H](C(=O)N[C@H](C(=O)O)C(C)C)C(C)C)C(C)C)[C@@H](C)CC)[C@@H](C)CC [Nle3-LF] (H-QK[NMeL]V[NMeF]FAED[Nle][Nle][Nle]NKGAIIGL[Nle]VGGVV-OH) |  |  | fully suppressed; also recorded: suppress formation of toxic IAPP assemblies | 82.1 |  |  | 
Nle3-LVFF: 4-fold N-methylated Nle3-VF analog; N-methylation of all four residues of segment LVFF (QK[NMeL][NMeV][NMeF][NMeF]AED[Nle][Nle][Nle]NKGAIIGL[Nle]VGGVV) |  |  |  |  |  |  | blocks amyloid self-assembly of Aβ42

Source: patent US20250161408A1, “PEPTIDIC INHIBITORS OF AMYLOID SELF- AND CROSS-ASSEMBLY” (TECHNISCHE UNIVERSITÄT MÜNCHEN, priority 2022, published 2025)
